Source: US20250197420A1, “MACROCYCLIC COMPOUNDS, COMPOSITIONS, AND METHODS OF USING THEREOF” (Sionna Therapeutics Inc., priority 2022, published 2025)

target: T1, Purified recombinant NBD1 (Homo sapiens, UniProt P13569); test: Aggregation analysis using differential static light scattering (DSLS): thermal stability of NBD1; assay type: binding; conditions: NBD1 0.2 mg/ml; Tagg of compound well minus average Tagg of DMSO control wells
T1 construct: Purified recombinant NBD1 was produced using previously described methods; made in house
T1 sequence (P13569 423-646 limits assumed): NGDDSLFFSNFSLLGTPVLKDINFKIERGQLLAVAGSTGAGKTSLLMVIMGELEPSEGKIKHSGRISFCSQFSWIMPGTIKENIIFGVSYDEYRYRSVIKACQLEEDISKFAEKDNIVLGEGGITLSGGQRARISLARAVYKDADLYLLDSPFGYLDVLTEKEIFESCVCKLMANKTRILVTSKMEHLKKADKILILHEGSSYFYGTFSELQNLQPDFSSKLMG
Method: Purified recombinant NBD1 was produced using previously described methods (A. Schmidt, J. L. Mendoza, P. J. Thomas (2011) Biochemical and Biophysical Approaches to Probe CFTR Structure (365-376) M. D. Amaral, K. Kunzelmann (eds.), Cystic Fibrosis, Methods in Molecular Biology 741, Springer Science+Business Media). The effect of test compounds on thermal stability of NBD1 was evaluated by differential static light scattering (DSLS) using the Harbinger Stargazer-384 instrument (Epiphyte Three, Toronto, Canada). Test compounds were dissolved and diluted to desired concentrations in 100% DMSO. The compounds or DMSO controls (100 nL) were stamped into wells of a […] low volume optical plate (Corning Inc., Corning, NY) using the Echo 555 acoustic liquid handler (Labcyte Inc., San Jose, CA).
NBD1 protein was diluted to 0.2 mg/ml in S200 buffer (50 mM Tris-HCl, 150 mM NaCl, 5 mM MgCl2, 2 mM ATP, 2 mM DTT, pH7.6) containing 1% glycerol. 10 uL of protein solution was aliquoted into the 384-well plate harboring the test compounds and 10 uL mineral oil was overlaid onto the protein solution, using the epMotion robotic liquid handler (Eppendorf North America, Hauppauge, NY). After placing into the Stargazer instrument, the plate was heated at 1° C. per minute to 70° C. Images were captured from 25° C. to 70° C. every 0.5° C. At the end of the experiment run, instrument software integrated image files and analyzed data automatically. A […] regression curve was generated for each well, representing the increase in light scattering over time. A temperature of aggregation (Tagg) was calculated based on the inflection point of the curve. To better compare data across experiments the average Tagg for DMSO control wells was calculated and subtracted from values for wells containing compounds to obtain a “ΔTagg” value. These ΔTagg values reflect stabilizing efficacy of the compounds. As set forth in Table 2 below, an ΔTagg value less than or equal to 5° C. is marked “A”; a value above 5° C. and less than or equal to 10° C. is marked “B”; a value greater than 10° C. and less than or equal to 25° C. is marked “C”.

Row | SMILES | DSLS (ΔTagg)
1 | CN1CCOCC(C)(c2cccc(CCC(=O)O)c2)c2cnc([nH]2)-c2cc(ccc2F)Oc2c(F)cc3[nH]ccc3c2CCC1=O (stereo not drawn) [Compound 19, 3-[3-(22,28-Difluoro-6,11-dimethyl-12-oxo-8,24-dioxa-3,11,19,30-tetrazapentacyclo[23.3.1.12,5.015,23.016,20]triaconta-1(29),2,4,15,17,20,22,25,27-nonaen-6-yl)phenyl]propanoic acid] | C (a value greater than 10 °C and less than or equal to 25 °C is marked “C”)
2 | CC(CC(=O)O)c1cccc(C2CCCCCN(C)C(=O)CCc3c(c(F)cc4[nH]ccc34)Oc3ccc(F)c(c3)-c3ncc2[nH]3)c1 (stereo not drawn) [Compound 21, 3-[3-(23,29-Difluoro-12-methyl-13-oxo-25-oxa-3,12,20,31-tetrazapentacyclo[24.3.1.12,5.016,24.017,21]hentriaconta-1(30),2,4,16,18,21,23,26,28-nonaen-6-yl)phenyl]butanoic acid] | C (a value greater than 10 °C and less than or equal to 25 °C is marked “C”)
3 | CC(Cc1cccc(C2CCCCCN(C)C(=O)CCc3c(c(F)cc4[nH]ccc34)Oc3ccc(F)c(c3)-c3ncc2[nH]3)c1)C(=O)O (stereo not drawn) [Compound 22, 3-[3-(23,29-Difluoro-12-methyl-13-oxo-25-oxa-3,12,20,31-tetrazapentacyclo[24.3.1.12,5.016,24.017,21]hentriaconta-1(30),2,4,16,18,21,23,26,28-nonaen-6-yl)phenyl]-2-methyl-propanoic acid] | C (a value greater than 10 °C and less than or equal to 25 °C is marked “C”)
4 | CC1CNC(=O)CCc2c(c(F)cc3[nH]ccc23)Oc2ccc(F)c(c2)-c2ncc([nH]2)C(C)(c2cccc(CCC(=O)O)c2)COC1 (stereo not drawn) [Compound 23, 3-[3-(23,29-Difluoro-6,10-dimethyl-13-oxo-8,25-dioxa-3,12,20,31-tetrazapentacyclo[24.3.1.12,5.016,24.017,21]hentriaconta-1(30),2,4,16,18,21,23,26,28-nonaen-6-yl)phenyl]propanoic acid] | C (a value greater than 10 °C and less than or equal to 25 °C is marked “C”)
5 | CC1(c2cccc(CCC(=O)O)c2)CCC(=O)NCCCCc2c(c(F)cc3[nH]ccc23)Oc2ccc(F)c(c2)-c2ncc1[nH]2 (stereo not drawn) [Compound 24, 3-[3-(22,28-Difluoro-6-methyl-9-oxo-24-oxa-3,10,19,30-tetrazapentacyclo[23.3.1.12,5.015,23.016,20]triaconta-1(29),2,4,15,17,20,22,25,27-nonaen-6-yl)phenyl]propanoic acid] | C (a value greater than 10 °C and less than or equal to 25 °C is marked “C”)
6 | CC1(c2ccccc2)CCC(=O)NCCCCc2c(c(F)cc3[nH]ccc23)Oc2ccc(F)c(c2)-c2ncc1[nH]2 (stereo not drawn) [Compound 25, 22,28-Difluoro-6-methyl-6-phenyl-24-oxa-3,10,19,30-tetrazapentacyclo[23.3.1.12,5.015,23.016,20]triaconta-1(29),2,4,15,17,20,22,25,27-nonaen-9-one] | B (a value above 5 °C and less than or equal to 10 °C is marked “B”)
7 | CC1(C)CCC(c2cccc(CCC(=O)O)c2F)c2cnc([nH]2)-c2cc(ccc2F)Oc2c(F)cc3[nH]ccc3c2CCC(=O)NC1 (stereo not drawn) [Compound 32, 3-[3-(22,28-Difluoro-9,9-dimethyl-12-oxo-24-oxa-3,11,19,30-tetrazapentacyclo[23.3.1.12,5.015,23.016,20]triaconta-1(29),2,4,15,17,20,22,25,27-nonaen-6-yl)-2-fluoro-phenyl]propanoic acid] | B (a value above 5 °C and less than or equal to 10 °C is marked “B”)
8 | [2H]C([2H])([2H])n1nc2nc1-c1cc(ccc1F)Oc1c(F)cc3[nH]ccc3c1CCC(=O)N(C)CC(C)(C)CCCC2(C)c1cccc(CCCO)c1 (stereo not drawn) [Compound 78, 23,29-difluoro-6-[3-(3-hydroxypropyl)phenyl]-6,10,10,12-tetramethyl-3-(trideuteriomethyl)-25-oxa-3,4,12,20,31-pentazapentacyclo-[24.3.1.12,5.016,24.017,21]hentriaconta-1(30),2(31),4,16,18,21,23,26,28-nonaen-13-one] | A (an ΔTagg value less than or equal to 5 °C is marked “A”)
9 | O=C(O)CCc1cccc(C2CCCCOC(=O)NCCc3c(c(F)cc4[nH]ccc34)Oc3ccc(F)c(c3)-c3ncc2[nH]3)c1F (stereo not drawn) [Compound 81, 3-[3-(23,29-Difluoro-12-oxo-11,25-dioxa-3,13,20,31-tetrazapentacyclo[24.3.1.12,5.016,24.017,21]hentriaconta-1(30),2,4,16(24),17(21),18,22,26,28-nonaen-6-yl)-2-fluoro-phenyl]propanoic acid] | C (a value greater than 10 °C and less than or equal to 25 °C is marked “C”)
10 | O=C1NCCc2c(c(F)cc3[nH]ccc23)Oc2ccc(F)c(c2)-c2ncc([nH]2)C(c2ccccc2F)CCCCO1 (stereo not drawn) [Compound 82, 23,29-Difluoro-6-(2-fluorophenyl)-11,25-dioxa-3,13,20,31-tetrazapentacyclo[24.3.1.12,5.016,24.017,21]hentriaconta-1(30),2,4,16(24),17(21),18,22,26,28-nonaen-12-one] | A (an ΔTagg value less than or equal to 5 °C is marked “A”)
11 | CN1CC(O)CCCC(C)(c2cccc(CCC(=O)O)c2)c2cnc([nH]2)-c2cc(ccc2F)Oc2c(F)cc3[nH]ccc3c2CCC1=O (stereo not drawn) [Compound 104, 3-[3-(23,29-Difluoro-10-hydroxy-6,12-dimethyl-13-oxo-25-oxa-3,12,20,31-tetrazapentacyclo[24.3.1.12,5.016,24.017,21]hentriaconta-1(30),2,4,16,18,21,23,26,28-nonaen-6-yl)phenyl]propanoic acid] | C (a value greater than 10 °C and less than or equal to 25 °C is marked “C”)
12 | CN1CC(=O)CCCC(C)(c2cccc(CCC(=O)O)c2)c2cnc([nH]2)-c2cc(ccc2F)Oc2c(F)cc3[nH]ccc3c2CCC1=O (stereo not drawn) [Compound 105, 3-[3-(23,29-Difluoro-6,12-dimethyl-10,13-dioxo-25-oxa-3,12,20,31-tetrazapentacyclo[24.3.1.12,5.016,24.017,21]hentriaconta-1(30),2,4,16,18,21,23,26,28-nonaen-6-yl)phenyl]propanoic acid] | C (a value greater than 10 °C and less than or equal to 25 °C is marked “C”)
